In article PMC10033419, “Blocking NS3–NS4B interaction inhibits dengue virus in non-human primates” (Nature, 2023):
Values joined by “and” are separate entries in the source; they are usually repeats but may differ in a detail not shown here. Identical values can stand only once.

System: DENV-2 RL strain
Assay: Delayed-treatment study (therapeutic setting)
Format: in vivo, AG129 mice
Conditions: for Viral Load Copies/ml / Viral Load Log10: 30 mg/kg/day, individual mice; for Viral (load), log10 of the column before (head empty) / Viral (load; head cut off): JNJ-1802 30 mg/kg
[1] = start treatment day 0 p.i., blood sampling day 3 p.i.
[2] = start treatment day 0 p.i., blood sampling day 4 p.i.
[3] = start treatment day 0 p.i., blood sampling day 5 p.i.
[4] = start treatment day 0 p.i., blood sampling day 6 p.i.
[5] = start treatment day 0 p.i., blood sampling day 7 p.i.
[6] = start treatment day 0 p.i., blood sampling day 8 p.i.
[7] = start treatment day 0 p.i., blood sampling day 9 p.i.
[8] = start treatment day 4 p.i., blood sampling day 3 p.i.
[9] = start treatment day 4 p.i., blood sampling day 4 p.i.
[10] = start treatment day 4 p.i., blood sampling day 5 p.i.
[11] = start treatment day 4 p.i., blood sampling day 6 p.i.
[12] = start treatment day 4 p.i., blood sampling day 7 p.i.
[13] = start treatment day 4 p.i., blood sampling day 8 p.i.
[14] = start treatment day 4 p.i., blood sampling day 9 p.i.
[15] = start treatment day 5 p.i., blood sampling day 3 p.i.
[16] = start treatment day 5 p.i., blood sampling day 4 p.i.
[17] = start treatment day 5 p.i., blood sampling day 5 p.i.
[18] = start treatment day 5 p.i., blood sampling day 6 p.i.
[19] = start treatment day 5 p.i., blood sampling day 7 p.i.
[20] = start treatment day 5 p.i., blood sampling day 8 p.i.
[21] = start treatment day 5 p.i., blood sampling day 9 p.i.
[22] = start treatment day 0 p.i., blood day 10, individual mice, 30 mg/kg
[23] = start treatment day 0 p.i., blood day 12, individual mice
[24] = start treatment day 0 p.i., blood day 14, individual mice, 30 mg/kg
[25] = start treatment day 4 p.i., blood day 10, individual mice, 30 mg/kg
[26] = start treatment day 4 p.i., blood day 12, individual mice
[27] = start treatment day 4 p.i., blood day 14, individual mice, 30 mg/kg
[28] = start treatment day 5 p.i., blood day 10, individual mice, 30 mg/kg
[29] = start treatment day 5 p.i., blood day 12, individual mice, 30 mg/kg

COc1cc(N[C@H](C(=O)c2c[nH]c3ccc(OC(F)(F)F)cc23)c2ccc(Cl)cc2OC)cc(S(C)(=O)=O)c1 [JNJ-1802]
Viral Load Copies/ml [1]: 1.31E+03 Copies/ml and 3.02E+03 Copies/ml
Viral Load Log10 [1]: 3.1316 Log10 and 3.1169 Log10 and 3.4801 Log10
Viral Load Copies/ml [2]: 1.31E+04 Copies/ml and 1.96E+04 Copies/ml and 3.27E+03 Copies/ml and 2.07E+03 Copies/ml
Viral Load Log10 [2]: 4.1169 Log10 and 4.2930 Log10 and 3.5148 Log10 and 3.3153 Log10
Viral Load Copies/ml [3]: 4.36E+03 Copies/ml and 3.27E+03 Copies/ml and 3.93E+03 Copies/ml
Viral Load Log10 [3]: 3.6398 Log10 and 3.5148 Log10 and 3.5940 Log10
Viral Load Copies/ml [4]: 1.31E+03 Copies/ml and 2.07E+03 Copies/ml and 5.61E+03 Copies/ml
Viral Load Log10 [4]: 3.1169 Log10 and 3.3153 Log10 and 3.7489 Log10
Viral Load Copies/ml [5]: 1.57E+03 Copies/ml and 1.64E+03 Copies/ml and 6.54E+03 Copies/ml and 9.82E+03 Copies/ml
Viral Load Log10 [5]: 3.8159 Log10 and 3.9919 Log10
Viral Load Copies/ml [6]: 6.54E+03 Copies/ml and 1.96E+04 Copies/ml and 3.27E+03 Copies/ml
Viral Load Log10 [6]: 3.8159 Log10 and 4.2930 Log10 and 3.5148 Log10
Viral Load Copies/ml [7]: 1.31E+03 Copies/ml and 1.64E+03 Copies/ml
Viral Load Log10 [7]: 3.1169 Log10
Viral Load Copies/ml [8]: 1.96E+04 Copies/ml and 8.52E+04 Copies/ml and 2.38E+05 Copies/ml and 1.40E+06 Copies/ml
Viral Load Log10 [8]: 4.2930 Log10 and 4.9304 Log10 and 5.3771 Log10 and 6.1456 Log10
Viral Load Copies/ml [9]: 5.13E+06 Copies/ml and 8.56E+06 Copies/ml and 1.09E+07 Copies/ml and 3.84E+06 Copies/ml
Viral Load Log10 [9]: 6.7101 Log10 and 6.9324 Log10 and 7.0387 Log10 and 6.5839 Log10
Viral Load Copies/ml [10]: 1.69E+05 Copies/ml and 1.30E+06 Copies/ml and 9.49E+05 Copies/ml and 2.98E+05 Copies/ml
Viral Load Log10 [10]: 5.8093 Log10 and 5.2288 Log10 and 6.1145 Log10 and 5.9771 Log10 and 5.4737 Log10
Viral Load Copies/ml [11]: 1.31E+03 Copies/ml and 2.07E+03 Copies/ml and 3.65E+04 Copies/ml and 6.54E+03 Copies/ml
Viral Load Log10 [11]: 4.0690 Log10 and 3.1169 Log10 and 3.3153 Log10 and 4.5619 Log10 and 3.8159 Log10
Viral Load Copies/ml [12]: 1.31E+03 Copies/ml and 2.07E+03 Copies/ml and 4.29E+06 Copies/ml and 6.54E+03 Copies/ml
Viral Load Log10 [12]: 3.1169 Log10 and 3.3153 Log10 and 6.6320 Log10 and 3.8159 Log10
Viral Load Copies/ml [13]: 1.31E+03 Copies/ml and 1.87E+03 Copies/ml
Viral Load Log10 [13]: 3.1169 Log10 and 3.2718 Log10
Viral Load Copies/ml [14]: 1.31E+03 Copies/ml
Viral Load Log10 [14]: 3.1169 Log10
Viral Load Copies/ml [15]: 1.69E+06 Copies/ml and 8.64E+05 Copies/ml
Viral Load Log10 [15]: 6.8381 Log10 and 6.2281 Log10 and 5.9363 Log10
Viral Load Copies/ml [16]: 1.81E+06 Copies/ml and 3.46E+06 Copies/ml and 7.59E+06 Copies/ml and 4.62E+06 Copies/ml
Viral Load Log10 [16]: 6.2566 Log10 and 6.5396 Log10 and 6.8802 Log10 and 6.6643 Log10
Viral Load Copies/ml [17]: 3.99E+07 Copies/ml and 1.36E+07 Copies/ml and 2.74E+07 Copies/ml and 2.11E+07 Copies/ml and 1.62E+07 Copies/ml
Viral Load Log10 [17]: 7.5974 Log10 and 7.1163 Log10 and 7.4220 Log10 and 7.3194 Log10 and 7.2021 Log10
Viral Load Copies/ml [18]: 1.03E+06 Copies/ml and 1.20E+06 Copies/ml and 1.55E+06 Copies/ml and 4.56E+05 Copies/ml
Viral Load Log10 [18]: 6.0131 Log10 and 6.0795 Log10 and 6.1913 Log10 and 5.6591 Log10
Viral Load Copies/ml [19]: 3.15E+05 Copies/ml
Viral Load Log10 [19]: 5.4984 Log10 and 4.8630 Log10
Viral Load Copies/ml [20]: 1.31E+03 Copies/ml and 1.96E+03 Copies/ml and 5.65E+04 Copies/ml
Viral Load Log10 [20]: 3.1169 Log10 and 3.2930 Log10 and 4.7518 Log10
Viral Load Copies/ml [21]: 1.31E+03 Copies/ml and 1.37E+04 Copies/ml
Viral Load Log10 [21]: 3.1169 Log10 and 4.1354 Log10
time until viral loads below LLOQ (60 mg/kg/day b.i.d., start day 4): ≤ 48 h
Viral (load), log10 of the column before (head empty) [22]: 3.1169 and 3.2930
Viral (load; head cut off) [22]: 1.31E+03 and 1.96E+03
Viral (load), log10 of the column before (head empty) [23]: 3.1169
Viral (load; head cut off) [23]: 1.31E+03
Viral (load), log10 of the column before (head empty) [24]: 3.1169 and 3.6909
Viral (load; head cut off) [24]: 1.31E+03 and 1.57E+03 and 4.91E+03
Viral (load), log10 of the column before (head empty) [25]: 3.1468 and 3.2930 and 3.1169
Viral (load; head cut off) [25]: 1.40E+03 and 1.96E+03 and 1.64E+03 and 1.31E+03
Viral (load), log10 of the column before (head empty) [26]: 3.1169
Viral (load; head cut off) [26]: 1.31E+03
Viral (load), log10 of the column before (head empty) [27]: 3.1169
Viral (load; head cut off) [27]: 1.31E+03 and 1.57E+03
Viral (load), log10 of the column before (head empty) [28]: 4.0084 and 3.1169
Viral (load; head cut off) [28]: 1.02E+04 and 1.31E+03
Viral (load), log10 of the column before (head empty) [29]: 3.1169 and 4.0709
Viral (load; head cut off) [29]: 1.31E+03 and 1.18E+04
